In ChEMBL document CHEMBL1155628, “A new cembranolide from the soft coral Sinularia capillosa” (2000):
Values after ≈ are worked out from the molar mass of the structure shown.

Key:
[1] = test system: L1210; assay: Cytotoxicity against mouse L1210 cells; type: functional; conditions: read-out: ED50 (the source's name)
[2] = test system: P388; assay: Cytotoxicity against mouse P388 cells; type: functional; conditions: read-out: ED50 (the source's name)

SMILES | EC50 [1] [µg/mL] | EC50 [2] [µg/mL]
C=C1C(=O)O[C@]2(C)CC[C@@H]1C[C@@H]1O[C@@]1(C)CC[C@H](OC(C)=O)[C@@]1(C)CC[C@@H]2O1 | 5 (≈ 12.7 µM) | 2.5 (≈ 6.37 µM)
C=C1C(=O)O[C@]2(C)CC[C@@H]1C[C@@H](O)[C@@](C)(O)CC/C=C(\C)CC[C@@H]2O [CAPILLOLIDE] | 18.5 (≈ 52.5 µM) | 15 (≈ 42.6 µM)
C=C1C(=O)O[C@@H]2C[C@H]1CC[C@]1(C)O[C@H]1CC/C(C)=C/CC[C@@]2(C)O [FLEXIBILIDE] | 3 (≈ 8.97 µM) | 1.5 (≈ 4.48 µM)
C=C1C(=O)O[C@]2(C)CC[C@@H]1C[C@@H]1O[C@@]1(C)CC/C=C(\C)CC[C@@H]2O [SINULARIOLIDE] | 10 (≈ 29.9 µM) | 8.5 (≈ 25.4 µM)
